Data reported in patent US7078163B2, “Process for reducing mineralization of tissue used in transplantation” (Medtronic, Inc., priority 2001, dated 2006).

Molecular target: T1, Chymotrypsin (Bos taurus, UniProt P00766)
T1 construct: purchased Sigma C 4129; host or cells: bovine pancreas (tissue-derived)
Experiment: AZOCOLL enzyme activity assay of chymotrypsin after exposure to reducing agent
Assay type: biochemical, bovine
Conditions: chymotrypsin exposed to DTT 10 mM in presence of SDS 1% w:v, 2 hours, 37-40° C., desalted; AZOCOLL 37° C. 20 minutes; mean of 3; positive control 0.523, negative control 0.003
Protocol: Stock trypsin and chymotrypsin solutions were solubilized from dry powder supplied by the manufacturer in PBS, pH 7.4, at room temperature. Protein concentrations were set at 1 mg/ml. Protein solutions were sterile filtered through a 0.45 μm syringe filter to eliminate potential bacterial contamination.
Working solution of the protein was prepared by dilution from concentrated stock to a final concentration of 100 μg/ml.
The protein was incubated with the agents for 2 hours. […] The protein was passed over a Sephadex G-25 column, as described above, to prepare it for the assay. After the protein was eluted from the column it was used immediately in the assay.
Each of the proteins that were exposed to an agent was assessed for its activity by incubating it with a collagen substrate with an azo containing dye. AZOCOLL was suspended in PBS at a concentration of 1 mg/ml.
For the assay, 1 ml of protein was mixed with 1 ml of AZOCOLL substrate. The reaction was performed at 37° C. for 20 minutes in Ependorff microfuge tubes. […] The aqueous solution was removed from the centrifuge tubes and the absorbance of the solution (containing soluble azo dye) was monitored at 520 nm. […]
All experiments were run in triplicate. Data reported is the mean of the 3 readings. […]

O[C@@H](CS)[C@@H](O)CS [reducing agent, dithiothreatol]
Abs. @ 520 nm: 0.031
